Source: article PMC11053683, “Tuning of the Anti-Breast Cancer Activity of Betulinic Acid via Its Conversion to Ionic Liquids” (Pharmaceutics, 2024)
Like-named read-outs stand apart in the source and are kept apart here.

Legend:
MCF-7 cells [1] = test: MTT assay, cytotoxicity on MCF-7 cells
[2] = Estimation of the water solubility (DMSO stock diluted with deionized water until sediment); format: physicochemical; parameters: key: “5×”: weak; “10×”: middle; “20×”:good’; “50×”: very good; “100×”: excellent; settings: 1 mg in 100 μL DMSO, class by dilution factor
Procedure: The water solubility of betulinic acid and its derivatives was evaluated following the described method. For this purpose, 1 mg of the substance was dissolved in 100 μL of DMSO. The stock solution was diluted with 10 μL potions of deionized water until the sediment was observed. 10 μL portions were added to produce dilutions corresponding to 5 times, 10 times, 20 times, 50 times, and 100 times the original concentration.

MCF-7 cells [3] = test: Cell morphology analysis by light microscopy; format: cell-based, human; settings: MCF-7, 72 h, concentration close to IC50
Procedure: The changes in cell morphology after a 72 h treatment with BA and [AAOEt][BA] were observed under an inverted microscope (MEIJI, Japan) with objective 10 (Phase DM, MEIJI, Japan) and camera Optikam B1 Digital (Optika, Ponteranica, Bergamo, Italy).

[4] = parameters: method as in PMID 28273859; settings: model of intestinal mucus, compared to known drugs; cited from earlier work
MCF-7 cells [5] = test: Colony formation (clonogenic) assay; format: cell-based, human; settings: for effect on MCF-7 colony formation: 2.5–12.5 µM
Procedure: Clonogenic assays were performed, and surviving fractions were calculated as described by Franken et al.. Briefly, MCF-7 cells were seeded in 6-well plates at a concentration of 500 cells/well and allowed to adhere for 48 h and subsequently treated with 2.5–12.5 µM concentration of BA and selected BA-ILs (Day 1). The BA and BA-ILs were replenished every 4 days. On Day 10, cells were fixed with 10% formalin in phosphate-buffered saline (PBS), pH 7.4 for 30 min at room temperature (RT), washed with PBS and stained with 0.1% Crystal violet solution in ddH2O, 30 min, RT, followed by a final thorough wash in ddH2O. The colonies were then imaged and analyzed with the open-source platform Fiji.

[6] = Thermal stability by thermogravimetric analysis (TG); format: physicochemical
Procedure: The test was conducted in the 25–1000 °C temperature range at a heating rate of 10 ° min^−1 under air (flow rate of 25 cm^−3min^−1) and nitrogen (flow rate of 10 cm^−3min^−1). The weight of the samples was 5–7 mg.

[7] = parameters: method as in PMID 28273859; settings: cited from earlier work
MCF-7 cells [8] = test system: MCF-7 cells
MCF-10A cells = test: MTT assay, cytotoxicity on MCF-10A cells; format: cell-based, human; settings: 72 h
Procedure: The assay was conducted as described by Mosmann. […] Non-treated cancer cells were used as a control.

Structure (SMILES) | Water Solubility [2] | TDTGmax (maximum decomposition temperature) ([6]; TG, 25–1000 °C, 10 °/min) | IC50 (MCF-7 cells [1]; MCF-7, 72 h, MTT) | TTGonset (onset of the thermal degradation) [6] | further results
C=C(C)[C@@H]1CC[C@]2(C(=O)O)CC[C@]3(C)[C@H](CC[C@@H]4[C@@]5(C)CC[C@H](O)C(C)(C)[C@@H]5CC[C@]43C)[C@@H]12 [BA, Betulinic acid] | weak | 358.7 °C | – | – | IC50 (MCF-7 cells [1]; Homo sapiens, MCF7, 72 h): 11.5 ± 1.8 µM; changes in cell numbers and morphology (MCF-7 cells [3]): reduction in cell numbers; permeability classification [4]: moderate to poorly permeable; effect on MCF-7 colony formation (MCF-7 cells [5]): did not inhibit MCF-7 colony formation; TTGonset (onset of the thermal degradation) ([6]; TG, 25–1000 °C, 10 °/min): 305.7 °C; bioavailability [7]: 2.3%
C=C(C)C1CCC2(C(=O)O)CCC3(C)C(CCC4C5(C)CCC(O)C(C)(C)C5CCC43C)C12.CCOC(=O)C(C)N (centres unmarked) [[AlaOEt][BA]] | weak | 370.7 °C | 12.7 ± 4.5 µM | 92.0 °C | –
C=C(C)C1CCC2(C(=O)O)CCC3(C)C(CCC4C5(C)CCC(O)C(C)(C)C5CCC43C)C12.CCOC(=O)CC(N)C(=O)OCC (centres unmarked) [[Asp(OEt)2][BA]] | middle | 357.4 °C | 8.9 ± 2.1 µM | 119.8 °C | –
C=C(C)C1CCC2(C(=O)O)CCC3(C)C(CCC4C5(C)CCC(O)C(C)(C)C5CCC43C)C12.CCOC(=O)C(N)CS (centres unmarked) [[CysOEt][BA]] | middle | 359.2 °C | 9.6 ± 3.8 µM | 150.1 °C | –
C=C(C)C1CCC2(C(=O)O)CCC3(C)C(CCC4C5(C)CCC(O)C(C)(C)C5CCC43C)C12.CCOC(=O)C(N)C(C)CC (centres unmarked) [[IleOEt][BA]] | weak | 369.0 °C | 8.5 ± 1.3 µM | 127.5 °C | cytotoxicity / IC50 compared with BA (MCF-7 cells [8]): IC50 values lower than that of BA
C=C(C)C1CCC2(C(=O)O)CCC3(C)C(CCC4C5(C)CCC(O)C(C)(C)C5CCC43C)C12.CCOC(=O)C(N)CC(C)C (centres unmarked) [[LeuOEt][BA]] | – | 359.4 °C | 7.5 ± 1.2 µM | 114.9 °C | –
C=C(C)C1CCC2(C(=O)O)CCC3(C)C(CCC4C5(C)CCC(O)C(C)(C)C5CCC43C)C12.C=C(C)C1CCC2(C(=O)O)CCC3(C)C(CCC4C5(C)CCC(O)C(C)(C)C5CCC43C)C12.CCOC(=O)C(N)CCCCN (centres unmarked) [[LysOEt][BA]2] | good | 368.8 °C | 4.8 ± 1.3 µM | 157.7 °C | changes in cell numbers and morphology (MCF-7 cells [3]): cell rounding and shrinkage; surviving fraction (cell clonogenicity) (MCF-7 cells [5]; MCF-7, 12.5 µM, vs non-treated control, Day 10): below 20%; clonogenic efficiency (MCF-7 cells [5]; MCF-7, compared to that of BA (abstract)): 20%; cell specificity of action (MCF-10A vs MCF-7) (MCF-10A cells): did not show any cell specificity; IC50 (MCF-10A cells; MCF-10A): 4 µM
C=C(C)C1CCC2(C(=O)O)CCC3(C)C(CCC4C5(C)CCC(O)C(C)(C)C5CCC43C)C12.CCOC(=O)C(N)CCCCN (centres unmarked) [[LysOEt][BA]] | very good | 327.3 °C | 12.9 ± 0.3 µM | 144.0 °C | –
C=C(C)C1CCC2(C(=O)O)CCC3(C)C(CCC4C5(C)CCC(O)C(C)(C)C5CCC43C)C12.CCOC(=O)C(N)CCSC (centres unmarked) [[MetOEt][BA]] | weak | 358.6 °C | 7.5 ± 0.3 µM | – | cytotoxicity / IC50 compared with BA (MCF-7 cells [1]; MCF-7, 72 h, MTT): IC50 values lower than that of BA; TTGonset (onset of the thermal degradation) ([6]; TG, 25–1000 °C, 10 °/min): 125.7 °C
C=C(C)C1CCC2(C(=O)O)CCC3(C)C(CCC4C5(C)CCC(O)C(C)(C)C5CCC43C)C12.CCOC(=O)C(N)Cc1ccccc1 (centres unmarked) [[PheOEt][BA]] | middle | 360.1 °C | 12.3 ± 1.7 µM | 133.9 °C | cytotoxicity / IC50 compared with BA (MCF-7 cells [8]): cytotoxicity similar to BA
C=C(C)C1CCC2(C(=O)O)CCC3(C)C(CCC4C5(C)CCC(O)C(C)(C)C5CCC43C)C12.CCOC(=O)C1CCCN1 (centres unmarked) [[ProOEt][BA]] | weak | 372.1 °C | 7.6 ± 1.8 µM | 121.6 °C | –
C=C(C)C1CCC2(C(=O)O)CCC3(C)C(CCC4C5(C)CCC(O)C(C)(C)C5CCC43C)C12.CCOC(=O)C(N)CO (centres unmarked) [[SerOEt][BA]] | middle | 364.1 °C | 12.2 ± 2.6 µM | 118.2 °C | –
C=C(C)C1CCC2(C(=O)O)CCC3(C)C(CCC4C5(C)CCC(O)C(C)(C)C5CCC43C)C12.CCOC(=O)C(N)C(C)O (centres unmarked) [[ThrOEt][BA]] | middle | 353.5 °C | 8.2 ± 2.4 µM | 109.0 °C | –
C=C(C)C1CCC2(C(=O)O)CCC3(C)C(CCC4C5(C)CCC(O)C(C)(C)C5CCC43C)C12.CCOC(=O)C(N)Cc1c[nH]c2ccccc12 (centres unmarked) [[TrpOEt][BA]] | middle | 359.8 °C | 13.1 ± 0.4 µM | – | cytotoxicity / IC50 compared with BA (MCF-7 cells [8]): cytotoxicity similar to BA
C=C(C)C1CCC2(C(=O)O)CCC3(C)C(CCC4C5(C)CCC(O)C(C)(C)C5CCC43C)C12.CCOC(=O)C(N)Cc1ccc(O)cc1 (centres unmarked) [[TyrOEt][BA]] | weak | 354.4 °C | 14.2 ± 2.4 µM | 202.3 °C | cytotoxicity / IC50 compared with BA (MCF-7 cells [8]): cytotoxicity similar to BA
C=C(C)C1CCC2(C(=O)O)CCC3(C)C(CCC4C5(C)CCC(O)C(C)(C)C5CCC43C)C12.CCOC(=O)C(N)C(C)C (centres unmarked) [[ValOEt][BA]] | weak | 354.0 °C | 25.7 ± 0.8 µM | 116.8 °C | effect on MCF-7 colony formation (MCF-7 cells [5]): did not inhibit MCF-7 colony formation
